Results reported in patent US20120251643A1, “ANTI-DIABETIC EXTRACT OF HONEYBUSH” (Zadec ApS, priority 2007, published 2012).

Legend:
[1] = system: diabetic rats (T1D and T2D); test: Flavonoids and extract administered to diabetic rats; type: in vivo; conditions: for results in diabetic rats compared with the extract: extracted and fractionated from Cyclopia
Protocol: The flavonoids specifically used were mangiferin and hesperidin.
Experiments with diabetic test animals (rats) were carried out.

[2] = Bioassay of purified fractions for anti-diabetic activity
Description: The partially purified active extract may be dissolved in methanol, and may be further fractionated by column chromatography, employing silica gel as an adsorption medium and a chloroform/30% methanol mixture as an eluent. A plurality of different fractions may be obtained, and each may be evaluated, by suitable bioassaying procedures, to determine the anti-diabetic activity thereof.
A fraction having anti-diabetic activity may preferably be further fractionated such as by column chromatography using silica gel as an adsorption medium and a 9:1 chloroform:methanol solvent, and the resultant sub-fractions bioassayed for their anti-diabetic activity. A sub-fraction displaying anti-diabetic activity may, if desired, be further fractionated and purified, conveniently using a column chromatographic procedure with silica gel as the adsorption medium and a 9:1 ethylacetate:hexane solvent. The resultant purified fractions may again be evaluated by suitable bioassay procedures for their anti-diabetic activity.

Q: For `COc1ccc([C@@H]2CC(=O)c3c(O)cc(O[C@@H]4O[C@H](CO[C@@H]5O[C@@H](C)[C@H](O)[C@@H](O)[C@H]5O)[C@@H](O)[C@H](O)[C@H]4O)cc3O2)cc1O` [hesperidin, 7-[[6-O-(6-deoxy-α-L-mannopyranosyl)-β-D-glucopyranosyl]oxy]-2,3-dihydro-5-hydroxy-2-(3-hydroxy-4-methoxyphenyl)-4H-1-benzopyran-4-on], which “results in diabetic rats compared with the extract” value [1] is on record?
A: results similar to those produced by the extract

Q: With `O=c1c2cc(O)c(O)cc2oc2cc(O)c([C@@H]3O[C@H](CO)[C@@H](O)[C@H](O)[C@H]3O)c(O)c12` [mangiferin] as the molecule, how does the “lowering of blood sugar and diabetic symptoms” value ([1]; both T1D and T2D rats) read?
A: effective in lowering the blood sugar and generally alleviating diabetic symptoms

Q: And the “results in diabetic rats compared with the extract” value [1]?
A: results similar to those produced by the extract

Q: And the “anti-diabetic activity of purified fraction” value [2]?
A: superior anti-diabetic activity
